pIC50: −log10 of the molar value.
Each compound was assayed against T1, JAK3 (JH1 and JH2 domain) (Homo sapiens, UniProt P52333) (assay: JAK3 Kinase Assay (ELISA of peptide substrate phosphorylation)). Details: purified JAK3 enzyme, 10 μM ATP, biotinylated peptide substrate, 1 hour at room temperature.
T1 sequence (P52333 521-1111 limits assumed): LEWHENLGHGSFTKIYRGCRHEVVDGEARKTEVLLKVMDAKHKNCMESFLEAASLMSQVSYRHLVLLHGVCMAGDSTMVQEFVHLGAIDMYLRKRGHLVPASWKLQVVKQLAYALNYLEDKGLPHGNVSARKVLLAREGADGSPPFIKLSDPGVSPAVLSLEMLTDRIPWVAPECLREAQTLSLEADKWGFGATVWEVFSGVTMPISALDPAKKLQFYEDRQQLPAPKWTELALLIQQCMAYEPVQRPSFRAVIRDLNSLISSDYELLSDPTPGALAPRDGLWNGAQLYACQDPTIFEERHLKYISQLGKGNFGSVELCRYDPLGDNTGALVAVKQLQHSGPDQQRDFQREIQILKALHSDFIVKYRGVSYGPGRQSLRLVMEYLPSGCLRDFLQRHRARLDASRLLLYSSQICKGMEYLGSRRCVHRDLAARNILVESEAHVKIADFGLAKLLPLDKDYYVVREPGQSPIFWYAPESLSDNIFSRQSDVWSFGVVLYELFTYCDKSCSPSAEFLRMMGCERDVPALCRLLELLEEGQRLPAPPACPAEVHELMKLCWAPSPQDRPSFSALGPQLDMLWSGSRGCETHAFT
Assay type: biochemical
In short: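 Sf21-baculovirus-expressed JAK3 (JH1+JH2), glutathione-bead purified, with biotinylated peptide substrate (in buffer containing 10 μM ATP) in HEPES pH 7.5/MgCl2/DTT, 1 h RT. Product was captured on Neutravidin, detected with HRP anti-phosphotyrosine (PY99)/TMB, OD 450/650 nm. Triplicate 16-point half-log series from 200 μM gave IC50; otherwise % inhibition at 1 μM.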
With `COc1ccc(CCNC(=O)OCC2Cn3c4ccccc4c4c5c(c6c7ccccc7n(c6c43)C2)C(=O)NC5)cc1OC` (stereo not shown) [Cpd 161, 12,13-(2-{[2-(3,4-dimethoxy-phenyl)ethyl]carbamoyloxymethyl}-propan-1,3-yl)-6,7,12,13-tetrahydro-5-oxo-5H-indolo[2,3-a]pyrrolo[3,4-c]carbazole] the pIC50 was 6.00. `O=C1NCc2c1c1c3ccccc3n3c1c1c2c2ccccc2n1CC(COC(=O)N1CCC(N2CCCC2)CC1)C3` (stereo not shown) [Cpd 162, 12,13-{2-[(4-pyrrolidin-1-yl-piperidin-1-yl)carbonyloxymethyl]-propan-1,3-yl}-6,7,12,13-tetrahydro-5-oxo-5H-indolo[2,3-a]pyrrolo[3,4-c]carbazole] showed a pIC50 of 6.18. `O=C(NC1CCN(Cc2ccccc2)CC1)OCC1Cn2c3ccccc3c3c4c(c5c6ccccc6n(c5c32)C1)C(=O)NC4` (stereo not shown) [Cpd 163, 12,13-{2-[(1-benzyl-piperidin-4-yl)carbamoyloxymethyl]-propan-1,3-yl}-6,7,12,13-tetrahydro-5-oxo-5H-indolo[2,3-a]pyrrolo[3,4-c]carbazole] gave a pIC50 of roughly 6.00. Work on `O=C1NCc2c1c1c3ccccc3n3c1c1c2c2ccccc2n1CC(COC(=O)N1CCN(CCO)CC1)C3` (stereo not shown) [Cpd 164, 12,13-(2-{[4-(2-hydroxy-ethyl)piperazin-1-yl]carbonyloxymethyl}-propan-1,3-yl)-6,7,12,13-tetrahydro-5-oxo-5H-indolo[2,3-a]pyrrolo[3,4-c]carbazole] yielded a pIC50 of 6.42. `O=C(NCCCN1CCOCC1)OCC1Cn2c3ccccc3c3c4c(c5c6ccccc6n(c5c32)C1)C(=O)NC4` (stereo not shown) [Cpd 165, 12,13-{2-[(3-morpholin-4-yl-prop-1-yl)carbamoyloxymethyl]-propan-1,3-yl}-6,7,12,13-tetrahydro-5-oxo-5H-indolo[2,3-a]pyrrolo[3,4-c]carbazole] showed a pIC50 of 6.56. For `O=C1NCc2c1c1c3ccccc3n3c1c1c2c2ccccc2n1CC(COC(=O)N1CCN(CCOCCO)CC1)C3` (stereo not shown) [Cpd 166, 12,13-[2-({4-[2-(2-hydroxy-ethoxy)ethyl]piperazin-1-yl}carbonyloxymethyl)-propan-1,3-yl]-6,7,12,13-tetrahydro-5-oxo-5H-indolo[2,3-a]pyrrolo[3,4-c]carbazole], the pIC50 was 6.24. Compound `O=C1NCc2c1c1c3ccccc3n3c1c1c2c2ccccc2n1CC(COC(=O)N1CCN(C(=O)OCc2ccccc2)CC1)C3` (stereo not shown) [Cpd 167, 12,13-(2-{[4-(benzyloxycarbonyl)piperazin-1-yl]carbonyloxymethyl}-propan-1,3-yl)-6,7,12,13-tetrahydro-5-oxo-5H-indolo[2,3-a]pyrrolo[3,4-c]carbazole] has a pIC50 of 6.69. In the case of `O=C1NCc2c1c1c3ccccc3n3c1c1c2c2ccccc2n1CC(COC(=O)N1CC[C@@H](O)C1)C3` (stereo partly drawn) [Cpd 168, 12,13-(2-{[(3R)-3-hydroxy-pyrrolidin-1-yl]carbonyloxymethyl}-propan-1,3-yl)-6,7,12,13-tetrahydro-5-oxo-5H-indolo[2,3-a]pyrrolo[3,4-c]carbazole], the pIC50 was 6.46. `COc1ccccc1CNC(=O)OCC1Cn2c3ccccc3c3c4c(c5c6ccccc6n(c5c32)C1)C(=O)NC4` (stereo not shown) [Cpd 169, 12,13-{2-[(2-methoxy-benzyl)carbamoyloxymethyl]-propan-1,3-yl}-6,7,12,13-tetrahydro-5-oxo-5H-indolo[2,3-a]pyrrolo[3,4-c]carbazole] showed a pIC50 of 7.14. With `O=C1NCc2c1c1c3ccccc3n3c1c1c2c2ccccc2n1CC(COC(=O)N1CCN(Cc2ccc4c(c2)OCO4)CC1)C3` (stereo not shown) [Cpd 170, 12,13-(2-{[4-(benzo[1,3]dioxol-5-ylmethyl)piperazin-1-yl]carbonyloxymethyl}-propan-1,3-yl}-6,7,12,13-tetrahydro-5-oxo-5H-indolo[2,3-a]pyrrolo[3,4-c]carbazole] the pIC50 was 6.69. With `CN(C)[C@H]1CCN(C(=O)OCC2Cn3c4ccccc4c4c5c(c6c7ccccc7n(c6c43)C2)C(=O)NC5)C1` (stereo partly drawn) [Cpd 171, 12,13-(2-{[(3S)-3-dimethylamino-pyrrolidin-1-yl]carbonyloxymethyl}-propan-1,3-yl)-6,7,12,13-tetrahydro-5-oxo-5H-indolo[2,3-a]pyrrolo[3,4-c]carbazole] the pIC50 was 6.17. For `CC(C)(C)OC(=O)NC1CCN(C(=O)OCC2Cn3c4ccccc4c4c5c(c6c7ccccc7n(c6c43)C2)C(=O)NC5)CC1` (stereo not shown) [Cpd 172, 12,13-(2-{[4-(t-butoxycarbonylamino)piperidin-1-yl]carbonyloxymethyl}-propan-1,3-yl)-6,7,12,13-tetrahydro-5-oxo-5H-indolo[2,3-a]pyrrolo[3,4-c]carbazole], the pIC50 was 6.92. Work on `CN(C)CCNC(=O)OCC1(O)Cn2c3ccccc3c3c4c(c5c6ccccc6n(c5c32)C1)C(=O)NC4` (stereo not shown) [Cpd 173, 12,13-{2-hydroxy-2-[(2-dimethylamino-ethyl)carbamoyloxymethyl]-propan-1,3-yl}-6,7,12,13-tetrahydro-5-oxo-5H-indolo[2,3-a]pyrrolo[3,4-c]carbazole] yielded a pIC50 of 7.16. For `COc1ccccc1CNC(=O)OCC1(O)Cn2c3ccccc3c3c4c(c5c6ccccc6n(c5c32)C1)C(=O)NC4` (stereo not shown) [Cpd 174, 12,13-{2-hydroxy-2-[(2-methoxy-benzyl)carbamoyloxymethyl]-propan-1,3-yl}-6,7,12,13-tetrahydro-5-oxo-5H-indolo[2,3-a]pyrrolo[3,4-c]carbazole], the pIC50 was 6.78. `CC(C)(C)OC(=O)NC1CCN(C(=O)OCC2(O)Cn3c4ccccc4c4c5c(c6c7ccccc7n(c6c43)C2)C(=O)NC5)CC1` (stereo not shown) [Cpd 175, 12,13-{2-hydroxy-2-[(4-t-butoxyamido-piperidin-1-yl)carbonyloxymethyl]-propan-1,3-yl}-6,7,12,13-tetrahydro-5-oxo-5H-indolo[2,3-a]pyrrolo[3,4-c]carbazole] gave a pIC50 of 6.61. `NC1CCN(C(=O)OCC2(O)Cn3c4ccccc4c4c5c(c6c7ccccc7n(c6c43)C2)C(=O)NC5)CC1` (stereo not shown) [Cpd 176, 12,13-{2-hydroxy-2-[(4-amino-piperidin-1-yl)carbonyloxymethyl]-propan-1,3-yl}-6,7,12,13-tetrahydro-5-oxo-5H-indolo[2,3-a]pyrrolo[3,4-c]carbazole] showed a pIC50 of 6.75. Work on `CC(C)(C)OC(=O)N1CCC(NC(=O)OCC2(O)Cn3c4ccccc4c4c5c(c6c7ccccc7n(c6c43)C2)C(=O)NC5)CC1` (stereo not shown) [Cpd 177, 12,13-{2-hydroxy-2-[(1-t-butoxycarbonyl-piperidin-4-yl)carbamoyloxymethyl]-propan-1,3-yl}-6,7,12,13-tetrahydro-5-oxo-5H-indolo[2,3-a]pyrrolo[3,4-c]carbazole] yielded a pIC50 of 6.84. `O=C(NC1CCNCC1)OCC1(O)Cn2c3ccccc3c3c4c(c5c6ccccc6n(c5c32)C1)C(=O)NC4` (stereo not shown) [Cpd 178, 12,13-[2-hydroxy-2-(piperidin-4-yl-carbamoyloxymethyl)-propan-1,3-yl]-6,7,12,13-tetrahydro-5-oxo-5H-indolo[2,3-a]pyrrolo[3,4-c]carbazole] showed a pIC50 of 6.81. In the case of `COCCNC(=O)OC1CCn2c3ccccc3c3c4c(c5c6ccccc6n(c5c32)CC1)C(=O)NC4` (stereo not shown) [Cpd 179, 12,13-{3-[(2-methoxy-ethyl)carbamoyloxy]-pentan-1,5-yl}-6,7,12,13-tetrahydro-5-oxo-5H-indolo[2,3-a]pyrrolo[3,4-c]carbazole], the pIC50 was 5.97. `CC(C)NC(=O)OC1CCn2c3ccccc3c3c4c(c5c6ccccc6n(c5c32)CC1)C(=O)NC4` (stereo not shown) [Cpd 180, 12,13-[3-(isopropyl-carbamoyloxy)-pentan-1,5-yl]-6,7,12,13-tetrahydro-5-oxo-5H-indolo[2,3-a]pyrrolo[3,4-c]carbazole] was tested, and the pIC50 was 6.15. `O=C1NCc2c1c1c3ccccc3n3c1c1c2c2ccccc2n1CCC(OC(=O)N1CCN(c2ccc(O)cc2)CC1)CC3` (stereo not shown) [Cpd 181, 12,13-(3-{[4-(4-hydroxy-phenyl)piperazin-1-yl]carbonyloxy}-pentan-1,5-yl)-6,7,12,13-tetrahydro-5-oxo-5H-indolo[2,3-a]pyrrolo[3,4-c]carbazole] gave a pIC50 of 5.13. With `COC[C@H](C)NC(=O)OC1CCn2c3ccccc3c3c4c(c5c6ccccc6n(c5c32)CC1)C(=O)NC4` (stereo partly drawn) [Cpd 182, 12,13-[3-({2-[(1S)-2-methoxy-1-methyl]ethyl}carbamoyloxy)-pentan-1,5-yl]-6,7,12,13-tetrahydro-5-oxo-5H-indolo[2,3-a]pyrrolo[3,4-c]carbazole] the pIC50 was 5.78. `COc1ccc(CCNC(=O)OC2CCn3c4ccccc4c4c5c(c6c7ccccc7n(c6c43)CC2)C(=O)NC5)cc1OC` (stereo not shown) [Cpd 183, 12,13-(3-{[2-(3,4-dimethoxy-phenyl)ethyl]carbamoyloxy}-pentan-1,5-yl)-6,7,12,13-tetrahydro-5-oxo-5H-indolo[2,3-a]pyrrolo[3,4-c]carbazole] gave a pIC50 of 5.90. `O=C1NCc2c1c1c3ccccc3n3c1c1c2c2ccccc2n1CCC(OC(=O)N1CCN(c2ccncc2)CC1)CC3` (stereo not shown) [Cpd 184, 12,13-{3-[(4-pyridin-4-yl-piperazin-1-yl)carbonyloxy]-pentan-1,5-yl}-6,7,12,13-tetrahydro-5-oxo-5H-indolo[2,3-a]pyrrolo[3,4-c]carbazole] gave a pIC50 of 5.36. In the case of `O=C1NCc2c1c1c3ccccc3n3c1c1c2c2ccccc2n1CCC(OC(=O)N1CCOCC1)CC3` (stereo not shown) [Cpd 185, 12,13-[3-(morpholin-4-yl-carbonyloxy)-pentan-1,5-yl]-6,7,12,13-tetrahydro-5-oxo-5H-indolo[2,3-a]pyrrolo[3,4-c]carbazole], the pIC50 was 7.16.

From patent US20070249590A1, “Substituted indolo[2,3-a]pyrrolo[3,4-c]carbazole compounds useful in treating kinase disorders” (priority 2005, published 2007)
